PubChem BioAssay (NCI)
Values joined by “and” are separate entries in the source; they are usually repeats but may differ in a detail not shown here. Identical values can stand only once.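 Interpolation was linear, between the two tested concentrations surrounding the appropriate level; five concentrations were tested over 48 hours in 96-well plates. Abbreviation: GI50, concentration required for 50% inhibition of growth. The concentration for full growth arrest is given as TGI.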

What was measured:
Experiment in all cases: growth of human tumour cells (NCI), 48 h
[1] = system: U251 CNS
[2] = system: LOX IMVI melanoma
[3] = system: HOP-62 NSCLC
[4] = system: MALME-3M melanoma
[5] = system: HS 578T breast
[6] = system: K-562 leukemia
[7] = system: HOP-92 NSCLC
[8] = system: SW-620 colon
[9] = system: HL-60(TB) leukemia
[10] = system: NCI-H226 lung

| SMILES | TGI [1] | TGI [2] | TGI [3] | TGI [4] | TGI [5] | TGI [6] | TGI [7] | TGI [8] [µM] | TGI [9] | TGI [10] | GI50 [2] | GI50 [3] | GI50 [4] | GI50 [6] | GI50 [9] | GI50 [5] [µM] |
| --- | --- | --- | --- | --- | --- | --- | --- | --- | --- | --- | --- | --- | --- | --- | --- | --- |
| O=C(O)CO/N=C1/C(c2c(O)[nH]c3ccccc23)=Nc2ccccc21 | > 100 µM | > 100 µM | > 100 µM | 99.5 µM | > 100 µM | > 100 µM | > 100 µM | > 100 | > 100 µM | – | – | – | – | – | – | – |
| CCSC12CC3c4cccc5c4C(CN5C(=O)c4ccccc4)CC3(O1)N(C)C2=O (stereo unspecified) | > 100 µM | > 100 µM | – | 88.3 µM | > 100 µM | > 100 µM | 71.9 µM | > 100 | 55.7 µM | > 100 µM | – | – | – | – | – | – |
| O=C(O)CCc1nc2cc3ccccc3cc2[nH]c1=O | > 100 µM | > 100 µM | > 100 µM | – | – | > 100 µM | > 100 µM | > 100 | – | > 100 µM | – | – | – | – | – | – |
| CC(Nc1n[nH]c(=O)c2c1nnn2Cc1ccccc1)c1ccccc1 (stereo unspecified) | > 100 µM and 88.7 µM | > 100 µM | > 100 µM and 86 µM | > 100 µM | – | > 100 µM | > 100 µM and 63.3 µM | – | > 100 µM | – | > 100 µM and 32.7 µM | > 100 µM and 21.7 µM | > 100 µM and 24.7 µM | > 100 µM and 22.8 µM | 37.4 µM and > 100 µM | – |
| CC(=O)C1=NN(c2ccccc2)C2(S1)SC(c1ccccc1)(c1ccccc1)c1ccccc12 (stereo unspecified) | > 100 µM | > 100 µM | > 100 µM | > 100 µM | – | > 100 µM | 46.1 µM | > 100 | > 100 µM | > 100 µM | – | – | – | – | – | – |
| c1cc(C[S+]2CCCC2)oc1C[S+]1CCCC1 | > 100 µM | > 100 µM | > 100 µM | > 100 µM | > 100 µM | > 100 µM | – | > 100 | – | – | – | – | – | – | – | – |
| CC[C@H](C)[C@H]1NC(=O)[C@@H](NC(=O)[C@@H](CC(C)C)N(C)C(=O)C2CCCN2C(=O)[C@H](C)O)[C@@H](C)OC(=O)[C@H](Cc2ccccc2)N(C)C(=O)[C@@H]2CCCN2C(=O)[C@H](CC(C)C)NC(=O)[C@@H](C)C(=O)[C@H](C(C)C)OC(=O)C[C@@H]1O (stereo partly specified) | – | < 0.00625 µM | 0.0639 µM | 0.0213 µM | 0.0114 µM | > 62.5 µM | – | > 62.5 | > 62.5 µM | 0.00705 µM | – | – | – | – | – | – |
| COc1nc(OC)nc(Sc2ccc(Sc3ccc(Sc4nc(OC)nc(OC)n4)cc3)cc2)n1 | > 100 µM | > 100 µM | – | > 100 µM | – | > 100 µM | > 100 µM | > 100 | > 100 µM | > 100 µM | – | – | – | – | – | – |
| COC(=O)CCC1(O)C=CC(=O)C=C1 | 63.2 µM | > 100 µM | > 100 µM | 50 µM | > 100 µM | > 100 µM | > 100 µM | > 100 | – | > 100 µM | – | – | – | – | – | – |
| O=C1c2ccccc2C(=O)c2c(O)c(NCCNCCO)cc(O)c21 | – | 15.5 µM | 11.5 µM | 26.5 µM | – | 10.4 µM | 24.6 µM | 12 | 14.1 µM | 14.9 µM | – | – | – | – | – | – |
| Cc1cc(Cl)ccc1NC(=O)C(=O)Cc1occc(=O)c1O | > 100 µM | > 100 µM | > 100 µM | > 100 µM | – | > 100 µM | > 100 µM | > 100 | > 100 µM | > 100 µM | – | – | – | – | – | – |
| COC(=O)CNCC1OC2OC(C)(C)OC2C1N=[N+]=[N-] (stereo unspecified) | > 100 µM | > 100 µM | > 100 µM | – | > 100 µM | > 100 µM | > 100 µM | > 100 | > 100 µM | > 100 µM | – | – | – | – | – | – |
| CC1(C)N=C(Oc2ccccc2)n2nccc2N1 | > 100 µM | > 100 µM | > 100 µM | > 100 µM | – | > 100 µM | > 100 µM | > 100 | > 100 µM | > 100 µM | – | – | – | – | – | – |
| C=CCC1C2CCC(O[Si](C(C)C)(C(C)C)C(C)C)(C(C(=O)OC)C2)C1O (stereo unspecified) | > 100 µM | – | > 100 µM | – | > 100 µM | > 100 µM | > 100 µM | > 100 | 36.7 µM | > 100 µM | – | – | – | – | – | – |
| Cc1ccc(N2C(=O)C(=O)N(/N=C3\C(=O)Nc4ccccc43)C2=S)cc1 | > 100 µM | > 100 µM | > 100 µM | > 100 µM | > 100 µM | > 100 µM | > 100 µM | > 100 | 25.4 µM | – | – | – | – | – | – | – |
| COc1cc2c(cc1OCCCCN1CCN(CCCCOc3cc4c(cc3OC)C(=O)N3CCC[C@H]3C=N4)CC1)N=C[C@@H]1CCCN1C2=O | > 100 µM | > 100 µM | > 42 µM | – | > 100 µM | > 11.3 µM | 0.255 µM | > 40 | – | 0.0891 µM | 0.0267 µM | – | – | – | – | – |
| Cc1cn2c(/C=C3/C(=O)Nc4ccccc43)c(C)nc2s1 | 10.9 µM | 70.4 µM | > 100 µM | > 100 µM | 7 µM | 17.2 µM | > 100 µM | 77.3 | 2.53 µM | – | – | – | – | – | – | – |
| COC1C(OC(N)=O)C(O)C(Oc2ccc3c(O)c(NC(=O)c4ccc(O)c(CC=C(C)C)c4)c(=O)oc3c2C)OC1(C)C (stereo unspecified) | > 100 µM | – | > 100 µM | > 100 µM | – | > 100 µM | – | > 100 | – | – | – | – | – | – | – | – |
| C(=N/NC1=NCCN1)/c1c2ccccc2c(/C=N\NC2=NCCN2)c2ccccc12 | 0.722 µM and 0.309 µM and 1.16 µM | 0.27 µM and 0.332 µM and 1.75 µM | 0.611 µM and 1.75 µM and 0.597 µM | 0.259 µM and 0.564 µM and 0.477 µM | 0.262 µM and 0.591 µM | 3.63 µM and 4.43 µM and 1.7 µM | 0.547 µM and 0.967 µM and 0.34 µM | – | 1.13 µM and 2.33 µM and 0.725 µM | 0.352 µM and 0.239 µM and 0.445 µM | – | – | – | – | – | 0.0844 |
| Cc1nc2nn(C)cc2c(=O)n1/N=C/c1ccccc1 | > 100 µM | > 100 µM | > 100 µM | > 100 µM | – | > 100 µM | – | > 100 | > 100 µM | > 100 µM | – | – | – | – | – | – |
| CCCOP(=S)(N1CC1)N1CC1 | > 100 µM | > 100 µM | > 100 µM | > 100 µM | – | > 100 µM | > 100 µM | > 100 | > 100 µM | > 100 µM | – | – | – | – | – | – |
| Cn1c(=O)sc2cc(C(=S)N3CCN(c4ccccc4)CC3)ccc21 | 35.1 µM | > 100 µM | 42.8 µM | > 100 µM | > 100 µM | > 100 µM | – | > 100 | > 100 µM | > 100 µM | – | – | – | – | – | – |
| Cc1cc(C)nc(NS(=O)(=O)c2ccc(NC(=O)c3cccc4c(N)c5ccccc5nc34)cc2)n1 | > 100 µM | > 100 µM | > 100 µM | > 100 µM | – | > 100 µM | – | > 100 | – | > 100 µM | – | – | – | – | – | – |
